Assay results taken from patent EP4227307A1 (Genzyme Corporation, priority 2022, dated 2023).
Where a name gives a salt, the structure may show the parent alone.

Target: T1, human recombinant 6His-Nterm SHP2 full-length (Thr2-Arg593) (Homo sapiens, UniProt Q06124)
T1 construct: 6His-Nterm SHP2 full-length (Thr2-Arg593, R&D system); 6His (N); purchased R&D system
T1 sequence (Q06124 2-593): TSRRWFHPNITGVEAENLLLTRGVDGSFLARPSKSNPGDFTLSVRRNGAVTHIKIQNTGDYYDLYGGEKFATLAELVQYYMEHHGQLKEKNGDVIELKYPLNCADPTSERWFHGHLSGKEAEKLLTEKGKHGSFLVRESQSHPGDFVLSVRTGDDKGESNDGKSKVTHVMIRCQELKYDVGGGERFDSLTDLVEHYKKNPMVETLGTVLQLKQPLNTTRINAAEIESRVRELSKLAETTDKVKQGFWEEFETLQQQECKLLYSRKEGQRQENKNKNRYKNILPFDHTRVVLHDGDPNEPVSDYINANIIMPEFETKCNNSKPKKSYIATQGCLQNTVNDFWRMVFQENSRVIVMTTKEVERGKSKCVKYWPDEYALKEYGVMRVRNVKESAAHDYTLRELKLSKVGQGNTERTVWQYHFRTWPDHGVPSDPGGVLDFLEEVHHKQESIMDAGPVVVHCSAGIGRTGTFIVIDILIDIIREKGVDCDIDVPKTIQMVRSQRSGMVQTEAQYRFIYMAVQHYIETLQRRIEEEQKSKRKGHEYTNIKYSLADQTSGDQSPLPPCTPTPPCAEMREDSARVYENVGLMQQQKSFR
Assay: SHP2 Phosphatase Assay (DiFMUP fluorescence)
Assay type: biochemical
Settings: SHP2 0.2 nM pre-incubated with 100 nM bi-phosphorylated activating peptide; compound 1000-0.05 nM, 30 min pre-incubation; DiFMUP 20 µM, 45 min, room temperature; 10-concentration dose-response
Procedure: Inhibition of SHP2 phosphatase activity was evaluated using human recombinant 6His-Nterm SHP2 full-length (Thr2-Arg593, R&D system), NsCs bi-phosphorylated activating peptide (NH2-LN(pY)AQLWHA(PEG8)LTI(pY)ATIRRF-Amide.acetate, Thermofischer Scientific) and DiFMUP as surrogate phosphatase substrate (Molecular Probes). All reactions were performed at room temperature in 384-well black polystyrene non-binding plate (Corning) with the assay buffer (50 mM HEPES-NaOH pH 7.2, 100 mM NaCl, 0.5 mM EDTA, 0.001% Brij35 including 0.02% BSA and 1 mM DTT added extemporaneously). SHP2 was pre-incubated at least 10 min with the activating peptide (0.2 nM and 100 nM, respectively). 10 µL of this mixture was added to the assay plate, that already contained 15 nL of the compound (1000-0.05 nM). After 30 min pre-incubation, the enzymatic reaction was initiated by the addition of 5 µL DiFMUP in assay buffer without BSA (20 µM). The reaction was stopped by the addition of 15 µL sodium pervanadate solution (100 µM) after 45 min incubation. The fluorescence signal was measured at excitation and emission wavelengths of 350 nm and 450 nm, respectively, using a Pherastar instrument (BMG-LabTech). Percentage of inhibition […] were calculated from the fluorescence signal at 450 nm of the positive and negative control using the following formula: I% = ((signal Max−signal Sample)/(signal Max−signal Min control)) × 100 [formula]
Positive control (Max): corresponds to the maximum fluorescence signal obtained in the presence of 15 nL DMSO replacing the inhibitor in the pre-incubation step.
Negative control (Min): corresponds to the minimum signal obtained in the presence of 1 µM of RMC-4550, the structure of which is shown below: [drawing 464]
The IC50 were then calculated from a dose-response curve of 10 concentrations of tested compound using the 4-parameter logistic model: I% = A + (C)/(1 + exp(−B×log(X)−M)) [formula]
The parameters A and (A+C) are the lower and upper limits, B is the slope of the curve at the inflexion point, M parameter is the logarithm of the abscissa at the inflexion point, and X is the concentration of compound.

| Compound | IC50 |
| --- | --- |
| [2H]c1c([2H])c([2H])c(-c2c(C)nc(N3CCC4(CC3)Cc3ncccc3[C@H]4N)c3ccnn23)c([2H])c1[2H] [Compound 57, (5S)-1'-[6-methyl-7-(2,3,4,5,6-pentadeuteriophenyl)pyrazolo [1,5-a]pyrazin-4-yl]spiro[5,7-dihydrocyclopenta[b]pyridine-6,4'-piperidine]-5-amine] | 10 nM |
| Cc1nc(N2CCC3(CC2)Cc2ncccc2[C@H]3N)c2ccnn2c1-c1ccccc1Cl [Compound 22, (5S)-1'-[7-(2-chlorophenyl)-6-methyl-pyrazolo[1,5-a]pyrazin-4-yl]spiro[5,7-dihydrocyclopenta[b]pyridine-6,4'-piperidine]-5-amine] | 11 nM |
| Cc1nc(N2CCC3(CC2)Cc2ncccc2[C@H]3N)c2ccnn2c1-c1ccn(C)c(=O)c1F [Compound 228, 4-[4-[(5S)-5-aminospiro[5,7-dihydrocyclopenta[b]pyridine-6,4'-piperidine]-1'-yl]-6-methyl-pyrazolo[1,5-a]pyrazin-7-yl]-3-fluoro-1-methyl-pyridin-2-one] | 86 nM |
| Cc1nccc(-c2cnc(N3CCC4(CC3)Cc3ncccc3[C@H]4N)c3ccnn23)c1Cl [Compound 86, (5S)-1'-[7-(3-chloro-2-methyl-4-pyridyl)pyrazolo[1,5-a]pyrazin-4-yl]spiro[5,7-dihydrocyclopenta[b]pyridine-6,4'-piperidine]-5-amine hydrochloride] | 60 nM |
| Cc1nc(N2CCC3(CC2)Cc2ncccc2[C@H]3N)c2ccnn2c1-c1cc2ccccc2n1C [Compound 50, (5S)-1'-[6-methyl-7-(1-methylindol-2-yl)pyrazolo[1,5-a]pyrazin-4-yl]spiro[5,7-dihydrocyclopenta[b]pyridine-6,4'-piperidine]-5-amine] | 10 nM |
| CCn1cc(-c2c(C)nc(N3CCC4(CC3)Cc3cc(OC)ccc3[C@H]4N)c3ccnn23)cn1 [Compound 148, (1S)-1'-[7-(1-ethylpyrazol-4-yl)-6-methyl-pyrazolo[1,5-a]pyrazin-4-yl]-5-methoxy-spiro[indane-2,4'-piperidine]-1-amine] | 9 nM |
| Cc1nc(N2CCC3(CC2)Cc2cc(CO)ncc2[C@H]3N)c2ccnn2c1-c1ccccc1F [Compound 59, [(7S)-7-amino-1'-[7-(2-fluorophenyl)-6-methyl-pyrazolo[1,5-a]pyrazin-4-yl]spiro[5,7-dihydrocyclopenta[c]pyridine-6,4'-piperidine]-3-yl]methanol] | 11 nM |
| Cc1nc(N2CCC3(CC2)Cc2ncccc2[C@H]3N)c2ccnn2c1-c1cccc(F)c1 [Compound 203, (5S)-1'-[7-(3-fluorophenyl)-6-methyl-pyrazolo[1,5-a]pyrazin-4-yl]spiro[5,7-dihydrocyclopenta[b]pyridine-6,4'-piperidine]-5-amine] | 6 nM |
| Cc1nc(N2CCC3(CC2)Cc2ncccc2[C@H]3N)c2ccnn2c1-c1ccc2c(c1)CCCO2 [Compound 167, (5S)-1'-(7-chroman-6-yl-6-methyl-pyrazolo[1,5-a]pyrazin-4-yl)spiro[5,7-dihydrocyclopenta[b]pyridine-6,4'-piperidine]-5-amine] | 9 nM |
| Cc1nc(N2CCC3(CC2)Cc2ncccc2[C@H]3N)c2ccnn2c1-c1ccc2c(c1)CCN2C [Compound 171, (5S)-1'-[6-methyl-7-(1-methylindolin-5-yl)pyrazolo[1,5-a]pyrazin-4-yl]spiro[5,7-dihydrocyclopenta[b]pyridine-6,4'-piperidine]-5-amine] | 20 nM |
| Cc1nc(N2CCC3(CC2)Cc2c(ccnc2CO)[C@H]3N)c2ccnn2c1-c1ccccc1F [Compound 35, [(5S)-5-amino-1'-[7-(2-fluorophenyl)-6-methyl-pyrazolo[1,5-a]pyrazin-4-yl]spiro[5,7-dihydrocyclopenta[c]pyridine-6,4'-piperidine]-1-yl]methanol] | 8 nM |
| Cc1nc(N2CCC3(CC2)Cc2ncccc2[C@H]3N)c2ccnn2c1-c1ccc2ncccc2c1 [Compound 202, (5S)-1'-[6-methyl-7-(6-quinolyl)pyrazolo[1,5-a]pyrazin-4-yl]spiro[5,7-dihydrocyclopenta[b]pyridine-6,4'-piperidine]-5-amine] | 26 nM |
| Cc1cnc2c(c1)[C@@H](N)C1(CCN(c3nc(C)c(-c4ccnc(C)c4Cl)n4nccc34)CC1)C2 [Compound 43, (5S)-1'-[7-(3-chloro-2-methyl-4-pyridyl)-6-methyl-pyrazolo[1,5-a]pyrazin-4-yl]-3-methyl-spiro[5,7-dihydrocyclopenta[b]pyridine-6,4'-piperidine]-5-amine] | 4 nM |
| Cc1nc(N2CCC3(CC2)Oc2ncccc2[C@H]3N)c2ccnn2c1-c1cccc(F)c1C(F)(F)F [Compound 129, (3R)-1'-[7-[3-fluoro-2-(trifluoromethyl)phenyl]-6-methyl-pyrazolo[1,5-a]pyrazin-4-yl]spiro[3H-furo[2,3-b]pyridine-2,4'-piperidine]-3-amine] | > 1000 nM |
| Cc1nc2c(s1)[C@@H](N)C1(CCN(c3nc(C)c(-c4ccccc4F)n4nccc34)CC1)C2 [Compound 83, (6S)-1'-[7-(2-fluorophenyl)-6-methyl-pyrazolo[1,5-a]pyrazin-4-yl]-2-methyl-spiro[4,6-dihydrocyclopenta[d]thiazole-5,4'-piperidine]-6-amine hydrochloride] | 10 nM |
| Cc1nc(N2CCC3(CC2)Cc2nc(O)ccc2[C@H]3N)c2ccnn2c1-c1cccc(F)c1F [Compound 222, (5S)-5-amino-1'-[7-(2,3-difluorophenyl)-6-methyl-pyrazolo[1,5-a]pyrazin-4-yl]spiro[5,7-dihydrocyclopenta[b]pyridine-6,4'-piperidine]-2-ol hydrochloride] | 1 nM |
| Cc1nc(N2CCC3(CC2)Cc2c(F)cccc2[C@H]3N)c2ccnn2c1-c1cnn(C)c1C [Compound 95, (1S)-1'-[7-(1,5-dimethylpyrazol-4-yl)-6-methyl-pyrazolo[1,5-a]pyrazin-4-yl]-4-fluoro-spiro[indane-2,4'-piperidine]-1-amine formate] | 19 nM |
| COc1ccc2c(c1)[C@@H](N)C1(CCN(c3nc(C)c(-c4cc(C(F)(F)F)nn4C)n4nccc34)CC1)C2 [Compound 127, (1S)-6-methoxy-1'-[6-methyl-7-[2-methyl-5-(trifluoromethyl)pyrazol-3-yl]pyrazolo[1,5-a]pyrazin-4-yl]spiro[indane-2,4'-pipendine]-1-amine hydrochloride] | 22 nM |
| Cc1nc(N2CCC3(CC2)Cc2ncccc2[C@H]3N)c2ccnn2c1-c1ccccc1F [Compound 51, (5S)-1'-[7-(2-fluorophenyl)-6-methyl-pyrazolo[1,5-a]pyrazin-4-yl]spiro[5,7-dihydrocyclopenta[b]pyridine-6,4'-piperidine]-5-amine] | 5 nM |
| COc1cccc2c1CC1(CCN(c3nc(C)c(-c4ccccc4F)n4nccc34)CC1)[C@@H]2N [Compound 109, (1S)-1'-[7-(2-fluorophenyl)-6-methyl-pyrazolo[1,5-a]pyrazin-4-yl] -4-methoxy-spiro[indane-2,4'-piperidine]-1-amine] | 10 nM |
| Cc1cnc2c(c1)[C@@H](N)C1(CCN(c3nc(C)c(-c4ccccc4F)n4nccc34)CC1)C2 [Compound 8, (5S)-1'-[7-(2-fluorophenyl)-6-methyl-pyrazolo[1,5-a]pyrazin-4-yl]-3-methyl-spiro[5,7-dihydrocyclopenta[b]pyridine-6,4'-piperidine] -5-amine] | 6 nM |
| Cc1nccc(-c2c(C)nc(N3CCC4(CC3)Cc3cccnc3[C@H]4N)c3ccnn23)c1Cl [Compound 13, (7S)-1'-[7-(3-chloro-2-methyl-4-pyridyl)-6-methyl-pyrazolo[1,5-a]pyrazin-4-yl]spiro[5,7-dihydrocyclopenta[b]pyridine-6,4'-piperidine]-7-amine] | 7 nM |
